Experimental data from patent US6849598B1, “Therapeutic compositions comprising bactericidal/permeability-increasing (BPI) protein products” (XOMA, priority 1995, dated 2005).
≈ marks a conversion by molar mass, not a printed value. Read-outs that look alike come from different tables or passages of the source.

Columns and labels:
Format in all cases: cell-based
E. faecium = test: Antibiotic susceptibility (MIC, Sensititre Trays) with rBPI21 poloxamer formulations; details: for MIC: Enterococcus faecium, read-out: Minimum Inhibitory Concentration; on susceptibility interpretation of MIC (superscript): key: clinically resistant (R); intermediate (I); susceptible (S)
A. baumannii [1] = test: Bactericidal activity with heat-treated PLURONIC P104 in serial 2-fold dilutions of serum; details: formulated BPI protein product diluted with heat-treated PLURONIC P104 solution
Method: Additional experiments were performed to test therapeutic compositions, prepared by diluting a variety of formulated BPI protein products with heat-treated PLURONIC P104 solution, and tested against A. baumannii in serial 2-fold dilutions of serum.

A. baumannii [2] = test: Bactericidal activity in serum, broth or water, CFU after 4 hours (Example 2)
Method: The bactericidal activity of therapeutic compositions comprising BPI protein product and either poloxamer 333 (PLURONIC P103, BASF Wyandotte Corp.) or heat-treated PLURONIC P103, was evaluated against the clinical isolates of Example 1. Therapeutic compositions comprising 160 μg/mL rBPI21 and varying concentrations of either PLURONIC P103 or heat-treated PLURONIC P103 were formulated by diluting a 2 mg/mL solution of “non-formulated” rBPI21 (in buffer comprising 5 mM sodium citrate and 150 mM NaCl, without any surfactants) with the appropriate amounts of PLURONIC P103 or heat-treated PLURONIC P103 solutions. A “formulated” rBPI21 solution containing 2 mg/mL rBPI21, 0.2% poloxamer 188 (PLURONIC F68, BASF Wyandotte Corp.), 0.002% TWEEN 80 (polysorbate 80, ICI Americas, Wilmington, Del.), 5 mM sodium citrate and 150 mM NaCl was also tested for comparison. Poloxamer control solutions containing only 0.1% PLURONIC P103 or 0.1% heat-treated PLURONIC P103, and no rBPI21, were also prepared.
A 0.1% (w/v) solution of PLURONIC P103 was prepared by stirring the PLURONIC P103 in deionized water until dissolved and filtering the solution through a […] cellulose acetate polystyrene filter unit (Corning Inc., Corning, N.Y.). […]
The bacteria to be used in the assays were grown on tryptic soy agar (TSA) plates (Remel, Catalog #01-920, Lenexa, Kans.) for 24 hours. […] A bacterial stock emulsion was prepared by emulsifying bacterial colonies in sterile deionized water to approximately 2.2 to 3.8×10^8 colony forming units (CFU)/mL as measured by a Microscan® Turbidity Meter (Dade Microscan, West Sacramento, Calif.), and diluting further by 1:10 in water. […] Following incubation, the remaining colony forming units (CFU) in each well were counted at a 10^−2 dilution by plating 10 μL from each well onto TSA plates. The TSA plates were incubated at 37° C. for 24 hours and the number of bacterial colonies were visually counted. […]

[3] = CSMHB, 16 μg/mL rBPI21 with F68
[4] = CSMHB, 16 μg/mL rBPI21 with P103
[5] = CSMHB, 16 μg/mL rBPI21 with P104
[6] = CSMHB, 16 μg/mL rBPI21 with P105
[7] = CSMHB, 16 μg/mL rBPI21 with P123
[8] = Serum, 16 μg/mL rBPI21 with F68
[9] = Serum, 16 μg/mL rBPI21 with P103
[10] = Serum, 16 μg/mL rBPI21 with P104
[11] = Serum, 16 μg/mL rBPI21 with P105
[12] = Serum, 16 μg/mL rBPI21 with P123

O=C(N[C@H](CO)[C@H](O)c1ccc([N+](=O)[O-])cc1)C(Cl)Cl [Chloramphenicol]
susceptibility interpretation of MIC (superscript) (E. faecium; [3]): S | susceptibility interpretation of MIC (superscript) (E. faecium; [4]): S | susceptibility interpretation of MIC (superscript) (E. faecium; [5]): S | susceptibility interpretation of MIC (superscript) (E. faecium; [6]): S | susceptibility interpretation of MIC (superscript) (E. faecium; [7]): S | susceptibility interpretation of MIC (superscript) (E. faecium; CSMHB, Control (no BPI)): I | MIC (E. faecium; [3]): < 4 µg/mL | MIC (E. faecium; [4]): < 4 µg/mL | MIC (E. faecium; [5]): < 4 µg/mL | MIC (E. faecium; [6]): < 4 µg/mL | MIC (E. faecium; [7]): < 4 µg/mL | MIC (E. faecium; CSMHB, Control (no BPI)): 16 µg/mL (≈ 49.5 µM) | MIC (E. faecium; [8]): 8 µg/mL (≈ 24.8 µM) | MIC (E. faecium; [9]): 8 µg/mL (≈ 24.8 µM) | MIC (E. faecium; [10]): 8 µg/mL (≈ 24.8 µM) | MIC (E. faecium; [11]): 8 µg/mL (≈ 24.8 µM) | MIC (E. faecium; [12]): 8 µg/mL (≈ 24.8 µM) | MIC (E. faecium; Serum, Control (no BPI)): 8 µg/mL (≈ 24.8 µM) | susceptibility interpretation of MIC (superscript) (E. faecium; [8]): S | susceptibility interpretation of MIC (superscript) (E. faecium; [9]): S | susceptibility interpretation of MIC (superscript) (E. faecium; [10]): S | susceptibility interpretation of MIC (superscript) (E. faecium; [11]): S | susceptibility interpretation of MIC (superscript) (E. faecium; [12]): S | susceptibility interpretation of MIC (superscript) (E. faecium; Serum, Control (no BPI)): S

B1: rBPI21: expression product of DNA encoding amino acid 1 to approximately 193 or 199 of BPI holoprotein, cysteine 132 substituted with alanine (protein, UniProt P17213 32-224, looked up, variant C132A)
chain: VNPGVVVRISQKGLDYASQQGTAALQKELKRIKIPDYSDSFKIKHLGKGHYSFYSMDIREFQLPSSQISMVPNVGLKFSISNANIKISGKWKAQKRFLKMSGNFDLSIEGMSISADLKLGSNPTSGKPTITASSCSSHINSVHVHISKSKVGWLIQLFHKKIESALRNKMNSQVCEKVTNSVSSELQPYFQTL
serum concentrations at which bactericidal activity was observed (A. baumannii [1]): ≤ 6.25% | colony forming units after 4 hours (A. baumannii [2]; Broth, bacteria only >5000): >5000 100's of CFUs | colony forming units after 4 hours (A. baumannii [2]; Serum, bacteria only >2000): >2000 100's of CFUs | colony forming units after 4 hours (A. baumannii [2]; Water, bacteria only >2000): 519 100's of CFUs
